Measurements as given in patent US20200247812A1 (Integral Biosciences Private Limited, priority 2018, published 2020).

The molecules below were run against T1, ALK 5 (Homo sapiens, UniProt P36897) (assay: In vitro kinase assay (ALK5 IC50, LanthaScreen Terbium labeled TR-FRET)). Conditions: TGF-β kinase 6 nM, ATP 10 μM, read-out: Enzyme Activity ALK 5 IC50.
T1 sequence (P36897 34-503): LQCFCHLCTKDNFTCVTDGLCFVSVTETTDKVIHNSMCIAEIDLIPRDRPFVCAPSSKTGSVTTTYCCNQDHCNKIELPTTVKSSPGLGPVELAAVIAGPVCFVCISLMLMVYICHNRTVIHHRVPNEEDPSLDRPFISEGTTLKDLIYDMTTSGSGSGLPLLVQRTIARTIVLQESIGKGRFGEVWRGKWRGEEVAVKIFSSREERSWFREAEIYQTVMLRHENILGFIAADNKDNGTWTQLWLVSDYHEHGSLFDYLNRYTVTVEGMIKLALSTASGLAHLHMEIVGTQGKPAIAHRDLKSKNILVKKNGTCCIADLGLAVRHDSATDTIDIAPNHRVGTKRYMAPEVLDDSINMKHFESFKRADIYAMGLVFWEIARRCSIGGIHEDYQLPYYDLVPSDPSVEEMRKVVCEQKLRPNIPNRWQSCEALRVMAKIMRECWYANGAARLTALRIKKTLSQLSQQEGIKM
Assay type: biochemical
Experimental: Compounds of the invention were screened in an in vitro kinase assay against ALK 5, a members of the TGF-β family of Ser/Thr kinases. Standard kinase testing conditions and techniques were employed. IC50 values of compounds against TGF-ß kinase was determined by LanthaScreen™ Terbium Labeled TR-FRET assay. Kinase assays were performed in 1X kinase buffer (# PV6135, Invitrogen, Life Technologies Grand Island, N.Y.) where total reaction volume was 10 μL in low-volume 384-well plates (#4511, Corning). Serially diluted compounds (3-fold) were incubated with TGF-β kinase (6 nM) for 10 min, following which a mixture of ATP (10 μM) (# A1852, Sigma, St-Louis, Mo.) and fluorescent-PolyGT substrate (200 nM); Cat # PV3610, Invitrogen, Life Technologies Grand Island, N.Y.) was added and incubated in dark at room temperature for 1 h. After 1 h, 10 μL stop solution containing Terbium labeled antibody (4 nM; Cat # PV3529, Invitrogen, Life Technologies Grand Island, N.Y.) and EDTA (# E5134, Sigma, St-Louis, Mo.; 20 mM) in TR-FRET dilution buffer (Cat # PV3574, Invitrogen, Life Technologies Grand Island, N.Y.) was added. Readings were taken in a Synergy Neo Plate reader (BioTek, Winooski) at single excitation of 340 nm and Dual emission at 495 nm and 520 nm respectively.
The % activity of test samples was calculated as (Sample-Min)×100/(Max −Min). [Max: DMSO control, complete reaction with enzyme with DMSO and Min: No enzyme with DMSO]. Percent inhibition (100-% activity) was fitted to the “four-parameter logistic model” in XLfit for determination of IC50 values.
For `CN(C)c1[nH]c(=O)c(-c2cc(Cl)ccc2F)cc1Nc1ccnc2ccncc12` [Compound 1.37, 5-((1,6-naphthyridin-4-yl)amino)-3-(5-chloro-2-fluorophenyl)-6-(dimethylamino)pyridin-2(1H)-one], the IC50 was 2 to 5 µM.
In the case of `CC(=O)Nc1cc(Nc2cc(-c3ccc(C(F)(F)F)nc3)c(=O)[nH]c2C(C)C)ccn1` [Compound 1.56, N-(4-((6-isopropyl-2-oxo-6′-(trifluoromethyl)-1,2-dihydro-[3,3′-bipyridin]-5-yl)amino)pyridin-2-yl)acetamide], the IC50 is reported as over 5 µM.
`CC(O)CNC(=O)c1cnccc1Nc1c[nH]c(=O)c(-c2cc(Cl)ccc2F)c1` (stereo not shown) [Compound 1.1, 4-((5-(5-chloro-2-fluorophenyl)-6-oxo-1,6-dihydropyridin-3-yl)amino)-N-(2-hydroxypropyl)nicotinamide] gave an IC50 of 2 to 5 µM.
`C[C@H](CO)NC(=O)c1cnccc1Nc1cc(-c2cc(Cl)ccc2F)c(=O)n2c1N(C)CCC2` [Compound 1.25, (R)-4-((7-(5-chloro-2-fluorophenyl)-1-methyl-6-oxo-1,3,4,6-tetrahydro-2H-pyrido[1,2-a]pyrimidin-9-yl)amino)-N-(1-hydroxypropan-2-yl)nicotinamide] showed an IC50 of over 5 µM.
`C[C@@H](CO)NC(=O)c1cnccc1Nc1cc(-c2cc(Cl)ccc2F)c(=O)n(C)c1` [Compound 1.8, (S)-4-((5-(5-chloro-2-fluorophenyl)-1-methyl-6-oxo-1,6-dihydropyridin-3-yl)amino)-N-(1-hydroxypropan-2-yl)nicotinamide] showed an IC50 of over 5 µM.
In the case of `CN(C)c1[nH]c(=O)c(-c2cc(Cl)ccc2F)cc1Nc1ccnc2c1ccn2C` [Compound 1.28, 3-(5-chloro-2-fluorophenyl)-6-(dimethylamino)-5-((1-methyl-1H-pyrrolo[2,3-b]pyridin-4-yl)amino)pyridin-2(1H)-one], the IC50 is reported as over 5 µM.
In the case of `CC(C)c1[nH]c(=O)c(-c2cc(Cl)ccc2F)cc1Nc1c(F)cnc2[nH]ccc12` [Compound 1.57, 3-(5-chloro-2-fluorophenyl)-5-((5-fluoro-1H-pyrrolo[2,3-b]pyridin-4-yl)amino)-6-isopropylpyridin-2(1H)-one], the IC50 is reported as at most 0.5 µM.
`CC(C)c1[nH]c(=O)c(-c2cc(Cl)ccc2F)cc1Nc1ccnc(NC(=O)CN2CCOCC2)c1` [Compound 1.65, N-(4-((5-(5-chloro-2-fluorophenyl)-2-isopropyl-6-oxo-1,6-dihydropyridin-3-yl)amino)pyridin-2-yl)-2-morpholinoacetamide] gave an IC50 of over 5 µM.
`CN(C)c1[nH]c(=O)c(-c2cc(Cl)ccc2F)cc1Nc1ccnc2cc(C(F)(F)F)ccc12` [Compound 1.33, 3-(5-chloro-2-fluorophenyl)-6-(dimethylamino)-5-((7-(trifluoromethyl)quinolin-4-yl)amino)pyridin-2(1H)-one] gave an IC50 of 2 to 5 µM.
With `CC(C)c1[nH]c(=O)c(-c2ccc(F)c(Cl)c2)cc1Nc1ccnc2[nH]ncc12` [Compound 1.84, 5-((1H-pyrazolo[3,4-b]pyridin-4-yl)amino)-3-(3-chloro-4-fluorophenyl)-6-isopropylpyridin-2(1H)-one] the IC50 was at most 0.5 µM.
`C[C@H](O)CNC(=O)c1cnccc1Nc1cc(-c2cc(Cl)ccc2F)c(=O)n2c1N(C)CC2` [Compound 1.19, (S)-4-((6-(5-chloro-2-fluorophenyl)-1-methyl-5-oxo-1,2,3,5-tetrahydroimidazo[1,2-a]pyridin-8-yl)amino)-N-(2-hydroxypropyl)nicotinamide] was tested, and the IC50 was 2 to 5 µM.
In the case of `CN(C)c1[nH]c(=O)c(-c2cc(Cl)ccc2F)cc1Nc1ccncc1C(=O)NC1CC1` [Compound 1.30, 4-((5-(5-chloro-2-fluorophenyl)-2-(dimethylamino)-6-hydroxypyridin-3-yl)amino)-N-cyclopropylnicotinamide], the IC50 is reported as 2 to 5 µM.
`CC(C)c1[nH]c(=O)c(-c2cc(Cl)ccc2F)cc1Nc1ccnc(C(C)(C)C#N)c1` [Compound 1.60, 2-(4-((5-(5-chloro-2-fluorophenyl)-2-isopropyl-6-oxo-1,6-dihydropyridin-3-yl)amino)pyridin-2-yl)-2-methylpropanenitrile] gave an IC50 of over 5 µM.
